Data: patent US7652064B2, “AMPA receptor potentiators” (Eli Lilly and Company, priority 2005, dated 2010)

Biological target: T1, human iGluR4 (Homo sapiens, UniProt P48058)
T1 construct: expressed in transfected cells; host or cells: HEK293
Assay: Whole-cell voltage clamp electrophysiology of AMPA receptor potentiation in HEK293 cells stably expressing human iGluR4
Type: cell-based
Details: voltage-clamped at −60 mV, 1 mM glutamate, fit to the Hill equation, read-out: activity (EC50, potentiation of current evoked by 1 mM glutamate)
Text: HEK293 cells stably expressing human iGluR4 (obtained as described in European Patent Application Publication No. EP-A1-0583917) are used in the electrophysiological characterization of AMPA receptor potentiators. The extracellular recording solution contains (in mM): 140 NaCl, 5 KCl, 10 HEPES, 1 MgCl2, 2 CaCl2, 10 glucose, pH=7.4 with NaOH, 295 mOsm kg-1. The intracellular recording solution contains (in mM): 140 CsCl, 1 MgCl2, 10 HEPES, (N-[2-hydroxyethyl]piperazine-N1-[2-ethanesulfonic acid]) 10 EGTA (ethylene-bis(oxyethylene-nitrilo)tetraacetic acid), pH=7.2 with CsOH, 295 mOsm kg-1. With these solutions, recording pipettes have a resistance of 2-3 MΩ. […] Responses to 1 mM glutamate are then determined in the presence of test compound. […]
In order to determine the potency of test compounds, the concentration of the test compound, both in the bathing solution and co-applied with glutamate, is increased in half log units until the maximum effect was seen. […] Reversibility of test compound activity is determined by assessing control glutamate 1 mM responses. Once the control responses to the glutamate challenge are re-established, the potentiation of these responses by 100 μM cyclothiazide is determined by its inclusion in both the bathing solution and the glutamate-containing solution. In this manner, the efficacy of the test compound relative to that of cyclothiazide can be determined. […]

T1 sequence (P48058 21-902): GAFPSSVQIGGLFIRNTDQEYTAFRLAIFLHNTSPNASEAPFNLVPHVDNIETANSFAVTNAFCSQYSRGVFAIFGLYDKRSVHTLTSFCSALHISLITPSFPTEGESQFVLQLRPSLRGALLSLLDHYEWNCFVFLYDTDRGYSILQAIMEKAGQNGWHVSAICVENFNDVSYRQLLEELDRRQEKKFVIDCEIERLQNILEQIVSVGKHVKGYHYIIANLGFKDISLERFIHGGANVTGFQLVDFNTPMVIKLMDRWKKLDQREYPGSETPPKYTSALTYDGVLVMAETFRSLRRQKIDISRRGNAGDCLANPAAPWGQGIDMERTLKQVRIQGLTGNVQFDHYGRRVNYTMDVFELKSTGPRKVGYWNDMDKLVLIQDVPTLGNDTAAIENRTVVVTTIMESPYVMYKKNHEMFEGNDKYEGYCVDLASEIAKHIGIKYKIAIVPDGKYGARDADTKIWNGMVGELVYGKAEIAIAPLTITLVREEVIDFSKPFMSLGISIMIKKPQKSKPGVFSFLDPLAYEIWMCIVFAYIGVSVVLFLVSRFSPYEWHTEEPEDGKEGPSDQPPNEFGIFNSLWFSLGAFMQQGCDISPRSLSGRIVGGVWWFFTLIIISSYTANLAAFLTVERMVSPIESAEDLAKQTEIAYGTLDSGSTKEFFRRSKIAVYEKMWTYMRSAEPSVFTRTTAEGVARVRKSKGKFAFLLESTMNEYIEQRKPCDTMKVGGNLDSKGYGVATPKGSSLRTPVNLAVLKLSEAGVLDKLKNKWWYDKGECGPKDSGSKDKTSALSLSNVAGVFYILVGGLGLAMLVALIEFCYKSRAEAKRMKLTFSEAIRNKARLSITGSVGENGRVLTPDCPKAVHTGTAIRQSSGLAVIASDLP

In the case of CCOc1cc(C(=O)O)ccc1-c1ccc(-c2sccc2NS(=O)(=O)C(C)C)cc1 [Example 1, 2-Ethoxy-4′-[3-(propane-2-sulfonylamino)-thiophen-2-yl]-biphenyl-4-carboxylic acid], the EC50 is reported as 145 nM.
